These are literature values, as cited in patent publication US8697743B2, “Antioxidant camptothecin derivatives and antioxidant antineoplastic nanospheres thereof” (Cedars-Sinai Medical Center, priority 2008, dated 2014).

Molecules are shown by their SMILES.

The conditions of series [1]: 30 minutes after administration.

Regarding `CC[C@@]1(O)C(=O)OCc2c1cc1n(c2=O)Cc2cc3ccccc3nc2-1` [camptothecin, (S)-4-ethyl-4-hydroxy-1H-pyrano-[3′,4′:6,7]indolizino[1,2-b]quinoline-3,14(4H,12H)-dione], the solubility in water entry is on record as “essentially insoluble in water”. Moreover, the “lactone form hydrolyzed to an open ring” value in series [1] is given as 50%.
